Results published in US8785460B2, “Tricyclic compounds and use thereof” (Takeda Pharmaceutical Company Limited, priority 2008, dated 2014).

Assays:
human CRF1 receptor = target: T1, human CRF1 receptor (Homo sapiens, UniProt P34998); assay: Measurement of CRF Binding Inhibitory Rate (receptor binding experiment with 125I-CRF); conditions: human CRF1 receptor expressing CHO cellular membrane fraction, 50 pM 125I-CRF, room temperature 1.5 hr, 0.05 nM to 10 μM of compound; read-out: IC50 values (CRF binding inhibition)
T1 construct: expressed in transfected cells; host or cells: CHO cells (membrane fraction)
T1 sequence (P34998 24-415): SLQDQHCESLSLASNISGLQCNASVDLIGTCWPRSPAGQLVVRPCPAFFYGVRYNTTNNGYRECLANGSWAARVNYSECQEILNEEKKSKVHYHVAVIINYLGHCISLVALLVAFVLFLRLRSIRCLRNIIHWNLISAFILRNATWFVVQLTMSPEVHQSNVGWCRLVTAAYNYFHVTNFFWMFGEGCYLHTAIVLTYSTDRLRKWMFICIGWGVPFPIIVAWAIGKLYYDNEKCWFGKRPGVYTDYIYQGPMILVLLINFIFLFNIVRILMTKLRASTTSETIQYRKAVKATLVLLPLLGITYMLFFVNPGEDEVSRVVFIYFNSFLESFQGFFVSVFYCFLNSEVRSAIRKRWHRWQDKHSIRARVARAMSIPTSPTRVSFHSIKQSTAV

Row | Structure (SMILES) | IC50 (human CRF1 receptor) [µM] | melting point [°C]
1 | CCC(COC)c1ccc(Cl)c2nc3n(c12)CCCN3c1ccc(Cl)cc1Cl (stereo not drawn) [Example 149, 9-Chloro-1-(2,4-dichlorophenyl)-6-[1-(methoxymethyl)propyl]-1,2,3,4-tetrahydropyrimido[1,2-a]benzimidazole] | < 1 | 130 to 131
2 | COCC(C)(C)c1ccc(Cl)c2nc3n(c12)CCCN3c1ccc(Cl)cc1Cl [Example 150, 9-Chloro-1-(2,4-dichlorophenyl)-6-(2-methoxy-1,1-dimethylethyl)-1,2,3,4-tetrahydropyrimido[1,2-a]benzimidazole] | < 1 | 188 to 190
3 | CCC(OC(C)=O)c1ccc(Cl)c2nc3n(c12)CCCN3c1cnc(N(C)C)cc1C (stereo not drawn) [Example 155, 1-{9-Chloro-1-[6-(dimethylamino)-4-methylpyridin-3-yl]-1,2,3,4-tetrahydropyrimido[1,2-a]benzimidazol-6-yl}propyl acetate] | < 1 | 159 to 160
4 | CCOC(CC)c1ccc(Cl)c2nc3n(c12)CCCN3c1cnc(N(C)C)cc1C (stereo not drawn) [Example 156, 5-[9-Chloro-6-(1-ethoxypropyl)-3,4-dihydropyrimido[1,2-a]benzimidazol-1(2H)-yl]-N,N,4-trimethylpyridin-2-amine] | < 1 | 179 to 180
5 | CCC(OC(C)=O)c1ccc(Cl)c2nc3n(c12)CCCN3c1ccc(N(C)C)nc1C (stereo not drawn) [Example 166, 1-{9-Chloro-1-[6-(dimethylamino)-2-methylpyridin-3-yl]-1,2,3,4-tetrahydropyrimido[1,2-a]benzimidazol-6-yl}propyl acetate] | < 1 | 165 to 166
6 | CCC(OCC(F)(F)F)c1ccc(Cl)c2nc3n(c12)CCCN3c1ccc(N(C)C)nc1C (stereo not drawn) [Example 167, 5-{9-Chloro-6-[1-(2,2,2-trifluoroethoxy)propyl]-3,4-dihydropyrimido[1,2-a]benzimidazol-1(2H)-yl}-N,N,6-trimethylpyridin-2-amine] | < 1 | 144 to 146
7 | CCC(OC(C)=O)c1ccc(Cl)c2nc3n(c12)CCCN3c1ncc(Cl)cc1Cl (stereo not drawn) [Example 171, 1-[9-Chloro-1-(3,5-dichloropyridin-2-yl)-1,2,3,4-tetrahydropyrimido[1,2-a]benzimidazol-6-yl]propyl acetate] | < 1 | 157 to 159
8 | CCC(OC(=O)C1CC1)c1ccc(Cl)c2nc3n(c12)CCCN3c1ncc(Cl)cc1Cl (stereo not drawn) [Example 172, 1-[9-Chloro-1-(3,5-dichloropyridin-2-yl)-1,2,3,4-tetrahydropyrimido[1,2-a]benzimidazol-6-yl]propyl cyclopropanecarboxylate] | < 1 | 154 to 155
9 | COc1nc(C)nc(OC)c1N1CCCn2c1nc1c(Cl)ccc(C(O)(C3CC3)C3CC3)c12 [Example 174, [9-Chloro-1-(4,6-dimethoxy-2-methylpyrimidin-5-yl)-1,2,3,4-tetrahydropyrimido[1,2-a]benzimidazol-6-yl](dicyclopropyl)methanol] | < 1 | 204 to 205
10 | Cc1cnc(N2CCCn3c2nc2c(Cl)ccc(C(O)(C4CC4)C4CC4)c23)c(C)n1 [Example 176, [9-Chloro-1-(3,5-dimethylpyrazin-2-yl)-1,2,3,4-tetrahydropyrimido[1,2-a]benzimidazol-6-yl](dicyclopropyl)methanol] | < 1 | 152 to 153
11 | COc1nc(C)c(N2CCCn3c2nc2c(Cl)ccc(C(O)(C4CC4)C4CC4)c23)c(C)n1 [Example 188, [9-Chloro-1-(2-methoxy-4,6-dimethylpyrimidin-5-yl)-1,2,3,4-tetrahydropyrimido[1,2-a]benzimidazol-6-yl](dicyclopropyl)methanol] | < 1 | 220 to 221
12 | COc1nc(C)c(N2CCCn3c2nc2c(Cl)ccc(C(OCC(F)(F)F)C4CC4)c23)c(C)n1 (stereo not drawn) [Example 189, 9-Chloro-6-[cyclopropyl(2,2,2-trifluoroethoxy)methyl]-1-(2-methoxy-4,6-dimethylpyrimidin-5-yl)-1,2,3,4-tetrahydropyrimido[1,2-a]benzimidazole] | < 1 | 225 to 227
13 | CC/C(=N\OC(F)F)c1ccc(Cl)c2nc3n(c12)CCCN3c1c(C)nc(OC)nc1C [Example 193, (1E)-1-[9-Chloro-1-(2-methoxy-4,6-dimethylpyrimidin-5-yl)-1,2,3,4-tetrahydropyrimido[1,2-a]benzimidazol-6-yl]propan-1-one O-(difluoromethyl)oxime] | < 1 | 199 to 200
14 | CCc1cc(CC)n(-c2ccc(Cl)c3nc4n(c23)CCCN4c2ccc(Cl)cc2Cl)n1 [Example 197, 9-Chloro-1-(2,4-dichlorophenyl)-6-(3,5-diethyl-1H-pyrazol-1-yl)-1,2,3,4-tetrahydropyrimido[1,2-a]benzimidazole] | < 1 | 185 to 187
15 | COC(c1cccc2nc3n(c12)CCCN3c1ccc(Cl)cc1Cl)C1CC1 (stereo not drawn) [Example 200, 6-[Cyclopropyl(methoxy)methyl]-1-(2,4-dichlorophenyl)-1,2,3,4-tetrahydropyrimido[1,2-a]benzimidazole] | < 1 | 118 to 119
16 | COC(c1cccc2nc3n(c12)CCCN3c1ccc(Cl)cc1Cl)C(F)(F)F (stereo not drawn) [Example 202, 1-(2,4-Dichlorophenyl)-6-(2,2,2-trifluoro-1-methoxyethyl)-1,2,3,4-tetrahydropyrimido[1,2-a]benzimidazole] | < 1 | 164 to 165
17 | CCC(CC(N)=O)c1cccc2nc3n(c12)CCCN3c1ccc(Cl)cc1Cl (stereo not drawn) [Example 205, 3-[1-(2,4-Dichlorophenyl)-1,2,3,4-tetrahydropyrimido[1,2-a]benzimidazol-6-yl]pentanamide] | < 1 | 132 to 133
18 | CCOc1nc(C)c(N2CCCn3c2nc2c(Cl)ccc(C(OC(F)F)C(F)(F)F)c23)c(C)n1 (stereo not drawn) [Example 210, 9-Chloro-6-[1-(difluoromethoxy)-2,2,2-trifluoroethyl]-1-(2-ethoxy-4,6-dimethylpyrimidin-5-yl)-1,2,3,4-tetrahydropyrimido[1,2-a]benzimidazole] | < 1 | 218 to 220
19 | Cc1nc(OC(C)C)nc(C)c1N1CCCn2c1nc1c(Cl)ccc(C(OC(F)F)C(F)(F)F)c12 (stereo not drawn) [Example 211, 9-Chloro-6-[1-(difluoromethoxy)-2,2,2-trifluoroethyl]-1-[4,6-dimethyl-2-(1-methylethoxy)pyrimidin-5-yl]-1,2,3,4-tetrahydropyrimido[1,2-a]benzimidazole] | < 1 | 227 to 230
20 | Cc1nc(C(C)C)nc(C)c1N1CCCn2c1nc1c(Cl)ccc(C(OC(F)F)C(F)(F)F)c12 (stereo not drawn) [Example 214, 9-Chloro-6-[1-(difluoromethoxy)-2,2,2-trifluoroethyl]-1-[4,6-dimethyl-2-(1-methylethyl)pyrimidin-5-yl]-1,2,3,4-tetrahydropyrimido[1,2-a]benzimidazole] | < 1 | 204 to 206
21 | Cc1nc(OC(F)F)nc(C)c1N1CCCn2c1nc1c(Cl)ccc(C(OC(F)F)C(F)(F)F)c12 (stereo not drawn) [Example 216, 9-Chloro-1-[2-(difluoromethoxy)-4,6-dimethylpyrimidin-5-yl]-6-[1-(difluoromethoxy)-2,2,2-trifluoroethyl]-1,2,3,4-tetrahydropyrimido[1,2-a]benzimidazole] | < 1 | 165 to 166
22 | Cc1nc(C2CC2)nc(C)c1N1CCCn2c1nc1c(Cl)ccc(C(OC(F)F)C(F)(F)F)c12 (stereo not drawn) [Example 218, 9-Chloro-1-(2-cyclopropyl-4,6-dimethylpyrimidin-5-yl)-6-[1-(difluoromethoxy)-2,2,2-trifluoroethyl]-1,2,3,4-tetrahydropyrimido[1,2-a]benzimidazole] | < 1 | 191 to 193
23 | CCC(c1ccc(Cl)c2nc3n(c12)CCCN3c1c(C)nc(OC)nc1C)C(F)F (stereo not drawn) [Example 222, 9-Chloro-6-[1-(difluoromethyl)propyl]-1-(2-methoxy-4,6-dimethylpyrimidin-5-yl)-1,2,3,4-tetrahydropyrimido[1,2-a]benzimidazole] | < 1 | 181 to 183
24 | CCC(CC)c1ccc(Cl)c2nc3n(c12)CCCCN3c1cc(C)cc2c1ncn2C [Example 230, 10-Chloro-1-(1,6-dimethyl-1H-benzimidazol-4-yl)-7-(1-ethylpropyl)-2,3,4,5-tetrahydro-1H-[1,3]diazepino[1,2-a]benzimidazole] | < 1 | 259 to 260
25 | CCN(CC)c1cccc2nc3n(c12)CC(F)(F)CN3c1ccc(Cl)cc1Cl [Example 231, 1-(2,4-Dichlorophenyl)-N,N-diethyl-3,3-difluoro-1,2,3,4-tetrahydropyrimido[1,2-a]benzimidazol-6-amine] | < 1 | 125 to 127
26 | CCCC(O)(CCC)c1ccc(Cl)c2nc3n(c12)CCCN3c1ccc(Cl)cc1Cl [Example 233, 4-[9-Chloro-1-(2,4-dichlorophenyl)-1,2,3,4-tetrahydropyrimido[1,2-a]benzimidazol-6-yl]heptan-4-ol] | < 1 | 133 to 135
27 | COC(c1ccc(Cl)c2nc3n(c12)CCCN3c1ccc(Cl)cc1Cl)C(C)C (stereo not drawn) [Example 235, 9-Chloro-1-(2,4-dichlorophenyl)-6-(1-methoxy-2-methylpropyl)-1,2,3,4-tetrahydropyrimido[1,2-a]benzimidazole] | < 1 | 162 to 164
